In publication PMC10729961, “Putative purine nucleoside interacting residues in the malaria parasite purine uptake transporter PfENT1 are critical for transporter function” (PLOS ONE, 2023):

Assays:
Format in all cases: cell-based
[1] = system: purine auxotrophic yeast (ade2Δ, fui1Δ); assay: [3H]uridine uptake assay, competition with cold adenosine; conditions: ade2Δ strain; cold adenosine vs [3H]uridine uptake, 15 min
Method: The radiolabeled uptake assay measures the ability of an unlabeled purine or pyrimidine substrate to inhibit the uptake of radiolabeled substrate into yeast via PfENT1 as previously described. Yeast strains containing PfENT1 (mutant or WT) were grown overnight in SDM media to a final OD600 between 0.2 and 0.5. Purine auxotrophic yeast used as a negative control were grown in YPD media. Yeast were spun down and washed three times with 15 mL phosphate buffered saline (PBS; 137 mM NaCl, 2.7 mM KCl, 10 mM KH2PO4, 10 mM Na2HPO4, pH 7.4). The final volume of yeast in PBS varied but it was diluted to a final OD600 = 0.2. […] For determination of minimal and maximal uptake, yeast strains were incubated without radioactivity or with radioactivity but no cold substrate competition, respectively. […] The amount of radioactivity in each well was measured by liquid scintillation counting using a 1450 MicroBeta TriLux (Perkin Elmer). The counts per minute (cpm) were recorded and technical triplicates were averaged. IC50 values were calculated, and statistical analysis was performed using GraphPad/Prism9 software. […]
Statistical significance was calculated using one-way analysis of variance (ANOVA) with GraphPad/Prism9 software. IC50 values were calculated using the non-linear regression dose-response inhibition log(inhibitor) vs normalized response program. […]

[2] = system: yeast expressing Q135C PfENT1; assay: 24-h adenosine-dependent growth assay; parameters: key: Mutant strains that did not grow are indicated by (ng, no growth)
Method: (§1) The Bioscreen C (Model #: 61400PRO) machine was used to measure proliferation of yeast expressing either wild type or mutant PfENT1 in 24-h assays. Yeast strains were grown overnight in SDM media plus 1 mM adenine. Yeast were spun down and resuspended in sterile water. Yeast were added into wells of honeycomb plates specific for the Bioscreen C (Fisher Scientific Cat No. #NC9976780) to achieve a final OD600 of 0.05 in the total volume of 150 μl per well of yeast and media. […] Each trial contained technical triplicates of every sample. The honeycomb plates were placed in the Bioscreen C where they were shaken continuously on high for 24-h at 30°C. OD600 was measured every 15 min.
(§2) For calculating the doubling time, the formula used was: Dt=ln(2)/kwherek=thegrowthrate
(§3) The k was calculated in Excel using the OD600 values in the growth curve that represented exponential growth (OD600 between 0.2 and 0.6). Alternatively, this formula can also be used: Dt=ln(2)/([ln(OD2)−ln(OD1)]/t2−t1)

[3] = system: yeast expressing W53C PfENT1; assay: 24-h adenosine-dependent growth assay; parameters: key: Mutant strains that did not grow are indicated by (ng, no growth)
Method: as §1, §2, §3

[4] = system: purine auxotrophic yeast (ade2Δ, fui1Δ); assay: 24-h adenosine-dependent growth assay; parameters: key: Mutant strains that did not grow are indicated by (ng, no growth); conditions: ade2Δ strain
Method: as §1, §2, §3

[5] = system: yeast expressing R291C PfENT1; assay: 24-h adenosine-dependent growth assay; parameters: key: Mutant strains that did not grow are indicated by (ng, no growth)
Method: as §1, §2, §3

[6] = system: yeast expressing D287C PfENT1; assay: 24-h adenosine-dependent growth assay; parameters: key: Mutant strains that did not grow are indicated by (ng, no growth)
Method: as §1, §2, §3

[7] = system: yeast expressing S290C PfENT1; assay: 24-h adenosine-dependent growth assay; parameters: key: Mutant strains that did not grow are indicated by (ng, no growth)
Method: as §1, §2, §3

[8] = system: yeast expressing L50C PfENT1; assay: 24-h adenosine-dependent growth assay; conditions: for Avg. Doubling time (h) Adenosine growth assay 1 mM: 1 mM adenosine sole purine source; for Avg. Doubling time (h) Adenosine growth assay 1 mM / Avg. Doubling time (h) Adenosine growth assay 2 mM: 24 h, mean±SEM; for Avg. Doubling time (h) Adenosine growth assay 2 mM: 2 mM adenosine sole purine source
Method: as §1, §2, §3

[9] = system: yeast expressing A134C PfENT1; assay: 24-h adenosine-dependent growth assay; conditions: mean±SEM
Method: as §1, §2, §3

[10] = system: yeast expressing F288C PfENT1; assay: 24-h adenosine-dependent growth assay; conditions: mean±SEM
Method: as §1, §2, §3

[11] = system: yeast expressing T136C PfENT1; assay: 24-h adenosine-dependent growth assay; conditions: mean±SEM
Method: as §1, §2, §3

[12] = system: yeast expressing V52C PfENT1; assay: 24-h adenosine-dependent growth assay; conditions: mean±SEM
Method: as §1, §2, §3

[13] = system: yeast expressing F286C PfENT1; assay: 24-h adenosine-dependent growth assay
Method: as §1, §2, §3

[14] = system: yeast expressing L289C PfENT1; assay: 24-h adenosine-dependent growth assay; conditions: mean±SEM
Method: as §1, §2, §3

[15] = system: yeast expressing S49C PfENT1; assay: 24-h adenosine-dependent growth assay; conditions: mean±SEM
Method: as §1, §2, §3

[16] = system: yeast expressing WT PfENT1; assay: 24-h adenosine-dependent growth assay; conditions: mean±SEM; for Avg. Doubling time (h) Adenosine growth assay 1 mM: 1 mM adenosine sole purine source; for Avg. Doubling time (h) Adenosine growth assay 2 mM: 2 mM adenosine sole purine source
Method: as §1, §2, §3

[17] = system: yeast expressing I137C PfENT1; assay: 24-h adenosine-dependent growth assay; conditions: mean±SEM
Method: as §1, §2, §3

[18] = system: yeast expressing N51C PfENT1; assay: 24-h adenosine-dependent growth assay; conditions: mean±SEM
Method: as §1, §2, §3

[19] = system: yeast expressing S48C PfENT1; assay: 24-h adenosine-dependent growth assay; conditions: mean±SEM
Method: as §1, §2, §3

[20] = 1 mM adenosine sole purine source
[21] = 2 mM adenosine sole purine source

Q: How did the “Average IC50 (μM) Adenosine” value [1] turn out when `Nc1ncnc2c1ncn2[C@@H]1O[C@H](CO)[C@@H](O)[C@H]1O` [Adenosine, adenosine] was run?
A: no uptake

Q: What about the “Avg. Doubling time (h) Adenosine growth assay 1 mM” value [2, 20] of the same compound?
A: ng

Q: What about the “Avg. Doubling time (h) Adenosine growth assay 2 mM” value [2, 21] of the same compound?
A: ng

Q: And the “Avg. Doubling time (h) Adenosine growth assay 1 mM” value [3, 20]?
A: ng

Q: And the “Avg. Doubling time (h) Adenosine growth assay 2 mM” value [3, 21]?
A: ng

Q: What about the “Avg. Doubling time (h) Adenosine growth assay 1 mM” value ([4]; 1 mM adenosine sole purine source, mean±SEM) of the same compound?
A: ng

Q: And the “Avg. Doubling time (h) Adenosine growth assay 2 mM” value [4, 21]?
A: ng

Q: What about the “Avg. Doubling time (h) Adenosine growth assay 1 mM” value [5, 20] of the same compound?
A: ng

Q: And the “Avg. Doubling time (h) Adenosine growth assay 2 mM” value [5, 21]?
A: ng

Q: What about the “Avg. Doubling time (h) Adenosine growth assay 1 mM” value [6, 20] of the same compound?
A: ng

Q: And the “Avg. Doubling time (h) Adenosine growth assay 2 mM” value [6, 21]?
A: ng

Q: And the “Avg. Doubling time (h) Adenosine growth assay 1 mM” value [7, 20]?
A: ng

Q: What about the “Avg. Doubling time (h) Adenosine growth assay 2 mM” value [7, 21] of the same compound?
A: ng

Q: And the “Avg. Doubling time (h) Adenosine growth assay 1 mM” value [8]?
A: 5.83 ± 0.47 h

Q: And the “Avg. Doubling time (h) Adenosine growth assay 1 mM” value ([8]; listed as adenosine)?
A: 5.8 h

Q: And the “Avg. Doubling time (h) Adenosine growth assay 2 mM” value [8]?
A: 7.16 ± 1.21 h

Q: What about the “Avg. Doubling time (h) Adenosine growth assay 2 mM” value ([8]; listed as adenosine) of the same compound?
A: 7.2 h

Q: What about the “increase of doubling time compared to WT PfENT1 control” value ([8]; in both 1 mM and 2 mM adenosine) of the same compound?
A: 1.9 fold

Q: And the “Avg. Doubling time (h) Adenosine growth assay 1 mM” value [9, 20]?
A: 4.42 ± 0.25 h

Q: And the “Avg. Doubling time (h) Adenosine growth assay 2 mM” value [9, 21]?
A: 4.09 ± 0.24 h

Q: What about the “Avg. Doubling time (h) Adenosine growth assay 1 mM” value [10, 20] of the same compound?
A: 3.61 ± 0.60 h

Q: And the “Avg. Doubling time (h) Adenosine growth assay 2 mM” value [10, 21]?
A: 3.57 ± 0.53 h

Q: And the “Avg. Doubling time (h) Adenosine growth assay 1 mM” value [11, 20]?
A: 3.12 ± 0.27 h

Q: What about the “Avg. Doubling time (h) Adenosine growth assay 2 mM” value [11, 21] of the same compound?
A: 3.06 ± 0.09 h

Q: What about the “Avg. Doubling time (h) Adenosine growth assay 1 mM” value [12, 20] of the same compound?
A: 4.20 ± 0.23 h

Q: And the “Avg. Doubling time (h) Adenosine growth assay 2 mM” value [12, 21]?
A: 3.78 ± 0.29 h

Q: What about the “Avg. Doubling time (h) Adenosine growth assay 1 mM” value [13, 20] of the same compound?
A: slow growth

Q: And the “Avg. Doubling time (h) Adenosine growth assay 2 mM” value [13, 21]?
A: slow growth

Q: And the “Avg. Doubling time (h) Adenosine growth assay 1 mM” value [14, 20]?
A: 3.08 ± 0.25 h

Q: What about the “Avg. Doubling time (h) Adenosine growth assay 2 mM” value [14, 21] of the same compound?
A: 3.12 ± 0.33 h

Q: What about the “Avg. Doubling time (h) Adenosine growth assay 1 mM” value [15, 20] of the same compound?
A: 3.06 ± 0.28 h

Q: What about the “Avg. Doubling time (h) Adenosine growth assay 2 mM” value [15, 21] of the same compound?
A: 2.99 ± 0.16 h

Q: And the “Avg. Doubling time (h) Adenosine growth assay 1 mM” value [16]?
A: 3.13 ± 0.36 h

Q: And the “Avg. Doubling time (h) Adenosine growth assay 1 mM” value ([16]; listed as adenosine)?
A: 3.1 h

Q: And the “Avg. Doubling time (h) Adenosine growth assay 2 mM” value [16]?
A: 3.72 ± 0.21 h

Q: And the “Avg. Doubling time (h) Adenosine growth assay 2 mM” value ([16]; listed as adenosine)?
A: 3.7 h

Q: What about the “Avg. Doubling time (h) Adenosine growth assay 1 mM” value [17, 20] of the same compound?
A: 3.99 ± 0.50 h

Q: And the “Avg. Doubling time (h) Adenosine growth assay 2 mM” value [17, 21]?
A: 3.5 ± 0.16 h

Q: And the “Avg. Doubling time (h) Adenosine growth assay 1 mM” value [18, 20]?
A: 3.46 ± 0.26 h

Q: And the “Avg. Doubling time (h) Adenosine growth assay 2 mM” value [18, 21]?
A: 3.89 ± 0.41 h

Q: What about the “Avg. Doubling time (h) Adenosine growth assay 1 mM” value [19, 20] of the same compound?
A: 3.77 ± 0.17 h

Q: What about the “Avg. Doubling time (h) Adenosine growth assay 2 mM” value [19, 21] of the same compound?
A: 3.68 ± 0.42 h
